What all share (assay type): functional
For assay [1], the system named is Bemisia tabaci. Description: Resistance factor, ratio of LC50 for adult female Bemisia tabaci B-biotype NJ-Imi (sweet potato whitefly) (G30) to LC50 for adult female B-type Bemisia tabaci NJ.
Assay [2] deals with Bemisia tabaci. In words: Insecticidal activity against adult female imidacloprid-resistant Bemisia tabaci B-biotype NJ-Imi (sweet potato whitefly) (G30) in cotton leaf discs assessed as mortality treated for 10 secs prior to adult infestation measured after 72 hr by leaf-dip bioassay. Particulars: foliar.
In assay [3] the test system is Bemisia tabaci. In words: Insecticidal activity against adult female imidacloprid-susceptible Bemisia tabaci B-biotype NJ (sweet potato whitefly) in cotton leaf discs assessed as mortality treated for 10 secs prior to adult infestation measured after 72 hr by leaf-dip bioassay. Particulars: foliar.
Assay [4] relates to Bemisia tabaci. Description: Resistance factor, ratio of LC50 for adult female Bemisia tabaci B-biotype NJ-Imi (sweet potato whitefly) (G15) to LC50 for adult female B-type Bemisia tabaci NJ.
Assay [5] concerns Bemisia tabaci. Description: Insecticidal activity against adult female imidacloprid-resistant Bemisia tabaci B-biotype NJ-Imi (sweet potato whitefly) (G15) in cotton leaf discs assessed as mortality treated for 10 secs prior to adult infestation measured after 72 hr by leaf-dip bioassay. Particulars: foliar.
Assay [6] has as its system Bemisia tabaci. Description: Insecticidal activity against female F1 progeny generated from reciprocal cross between female Bemisia tabaci B-biotype NJ-Imi (sweet potato whitefly) with male Bemisia tabaci B-biotype NJ in cotton leaf discs assessed as mortality treated for 10 secs prior to adult infestation measured after 72 hr by leaf-dip bioassay. Particulars: foliar.

Assay [7] relates to Bemisia tabaci. Description: Insecticidal activity against adult male Bemisia tabaci B-biotype NJ-Imi (sweet potato whitefly) (G30) in cotton leaf discs assessed as mortality treated for 10 secs prior to adult infestation measured after 72 hr by leaf-dip bioassay. Particulars: foliar.
For assay [8], the system named is Bemisia tabaci. Description: Insecticidal activity against adult female Bemisia tabaci B-biotype NJ-Imi (sweet potato whitefly) (G15) in cotton leaf discs assessed as mortality treated for 10 secs prior to adult infestation measured after 72 hr by leaf-dip bioassay in presence of 100 mg/L cytochrome P450 monoxygenase inhibitor, PBO. As to conditions: foliar.
Assay [9] relates to Bemisia tabaci. Description: Insecticidal activity against adult female Bemisia tabaci B-biotype NJ (sweet potato whitefly) in cotton leaf discs assessed as mortality treated for 10 secs prior to adult infestation measured after 72 hr by leaf-dip bioassay in presence of 100 mg/L esterase inhibitor, DEF. Particulars: foliar.
Assay [10] deals with Bemisia tabaci. Description: Insecticidal activity against adult female Bemisia tabaci B-biotype NJ (sweet potato whitefly) in cotton leaf discs assessed as mortality treated for 10 secs prior to adult infestation measured after 72 hr by leaf-dip bioassay in presence of 100 mg/L GSH depleter, DEM. As to conditions: foliar.
The test system of assay [11] is Bemisia tabaci. In words: Insecticidal activity against adult female Bemisia tabaci B-biotype NJ (sweet potato whitefly) in cotton leaf discs assessed as mortality treated for 10 secs prior to adult infestation measured after 72 hr by leaf-dip bioassay in presence of 100 mg/L cytochrome P450 monoxygenase inhibitor, PBO. As to conditions: foliar.
For assay [12], the system named is Bemisia tabaci. In words: Resistance factor, ratio of LC50 for female B-biotype Bemisia tabaci NJ-Imi F1' (sweet potato whitefly) progeny to LC50 for adult female B-type Bemisia tabaci NJ.
Assay [13] deals with Bemisia tabaci. Description: Resistance factor, ratio of LC50 for adult male Bemisia tabaci B-biotype NJ-Imi (sweet potato whitefly) (G30) to LC50 for adult female B-type Bemisia tabaci NJ.
Assay [14] concerns Bemisia tabaci. Description: Resistance factor, ratio of LC50 for female Bemisia tabaci B-biotype NJ-Imi F1 (sweet potato whitefly) progeny to LC50 for adult female B-type Bemisia tabaci NJ.
Assay [15] has as its system Bemisia tabaci. In words: Insecticidal activity against female F1' progeny generated from reciprocal cross between male B-biotype Bemisia tabaci NJ-Imi (sweet potato whitefly) with female B-biotype Bemisia tabaci NJ in cotton leaf discs assessed as mortality treated for 10 secs prior to adult infestation measured after 72 hr by leaf-dip bioassay. Particulars: foliar.

The subject of assay [16] is Bemisia tabaci. In words: Insecticidal activity against adult female Bemisia tabaci B-biotype NJ-Imi (sweet potato whitefly) (G15) in cotton leaf discs assessed as mortality treated for 10 secs prior to adult infestation measured after 72 hr by leaf-dip bioassay in presence of 100 mg/L GSH depleter, DEM. As to conditions: foliar.
Assay [17] concerns Bemisia tabaci. In words: Synergistic ratio of LC50 for adult female Bemisia tabaci B-biotype NJ-Imi (sweet potato whitefly) (G15) to LC50 for adult female Bemisia tabaci B-biotype NJ in presence of 100 mg/L cytochrome P450 monoxygenase inhibitor, PBO.
Assay [18] deals with Bemisia tabaci. In words: Synergistic ratio of LC50 for adult female Bemisia tabaci B-biotype NJ (sweet potato whitefly) to LC50 for adult female Bemisia tabaci B-biotype NJ in presence of 100 mg/L esterase inhibitor, DEF.
Assay [19] deals with Bemisia tabaci. Description: Synergistic ratio of LC50 for adult female Bemisia tabaci B-biotype NJ (sweet potato whitefly) to LC50 for adult female Bemisia tabaci B-biotype NJ in presence of 100 mg/L GSH depleter, DEM.
For assay [20], the system named is Bemisia tabaci. In words: Synergistic ratio of LC50 for adult female Bemisia tabaci B-biotype NJ (sweet potato whitefly) to LC50 for adult female Bemisia tabaci B-biotype NJ in presence of 100 mg/L cytochrome P450 monoxygenase inhibitor, PBO.
Assay [21] deals with Bemisia tabaci. Description: Insecticidal activity against adult female Bemisia tabaci B-biotype NJ-Imi (sweet potato whitefly) (G30) in cotton leaf discs assessed as mortality treated for 10 secs prior to adult infestation measured after 72 hr by leaf-dip bioassay in presence of 100 mg/L esterase inhibitor, DEF. Particulars: foliar.
Assay [22] has as its system Bemisia tabaci. Description: Insecticidal activity against adult female Bemisia tabaci B-biotype NJ-Imi (sweet potato whitefly) (G30) in cotton leaf discs assessed as mortality treated for 10 secs prior to adult infestation measured after 72 hr by leaf-dip bioassay in presence of 100 mg/L GSH depleter, DEM. Particulars: foliar.
The subject of assay [23] is Bemisia tabaci. Description: Insecticidal activity against adult female Bemisia tabaci B-biotype NJ-Imi (sweet potato whitefly) (G30) in cotton leaf discs assessed as mortality treated for 10 secs prior to adult infestation measured after 72 hr by leaf-dip bioassay in presence of 100 mg/L cytochrome P450 monoxygenase inhibitor, PBO. Particulars: foliar.
Assay [24] relates to Bemisia tabaci. Description: Insecticidal activity against adult female Bemisia tabaci B-biotype NJ-Imi (sweet potato whitefly) (G15) in cotton leaf discs assessed as mortality treated for 10 secs prior to adult infestation measured after 72 hr by leaf-dip bioassay in presence of 100 mg/L esterase inhibitor, DEF. As to conditions: foliar.
Assay [25] relates to Bemisia tabaci. Description: Synergistic ratio of LC50 for adult female Bemisia tabaci B-biotype NJ-Imi (sweet potato whitefly) (G30)to LC50 for adult female Bemisia tabaci B-biotype NJ in presence of 100 mg/L esterase inhibitor, DEF.
In assay [26] the test system is Bemisia tabaci. In words: Synergistic ratio of LC50 for adult female Bemisia tabaci B-biotype NJ-Imi (sweet potato whitefly) (G30) to LC50 for adult female Bemisia tabaci B-biotype NJ in presence of 100 mg/L GSH depleter, DEM.
For assay [27], the system named is Bemisia tabaci. Description: Synergistic ratio of LC50 for adult female Bemisia tabaci B-biotype NJ-Imi (sweet potato whitefly) (G30) to LC50 for adult female Bemisia tabaci B-biotype NJ in presence of 100 mg/L cytochrome P450 monoxygenase inhibitor, PBO.
Assay [28] concerns Bemisia tabaci. Description: Synergistic ratio of LC50 for adult female Bemisia tabaci B-biotype NJ-Imi (sweet potato whitefly) (G15)to LC50 for adult female Bemisia tabaci B-biotype NJ in presence of 100 mg/L esterase inhibitor, DEF.
Assay [29] concerns Bemisia tabaci. Description: Synergistic ratio of LC50 for adult female Bemisia tabaci B-biotype NJ-Imi (sweet potato whitefly) (G15) to LC50 for adult female Bemisia tabaci B-biotype NJ in presence of 100 mg/L GSH depleter, DEM.

Converted amounts (≈) assume the structure as drawn.

As for `CN(C)C(CSC(N)=O)CSC(N)=O` [CARTAP], the RatioLC50 in the assay with Bemisia tabaci [1] is 11. In addition, the LC50 in the assay with Bemisia tabaci [2] is 17.4 µg/mL (≈ 73.3 µM); in the assay on Bemisia tabaci [3], 1.55 µg/mL (≈ 6.53 µM).
With `CN(C)C(CSS(=O)(=O)[O-])CSS(=O)(=O)O.[Na+]` [MONOSULTAP], the RatioLC50 in the assay with Bemisia tabaci [1] and with Bemisia tabaci [4] was 7 in each case. Further, the 50% lethal concentration (LC50) in the assay on Bemisia tabaci [2] worked out at 294 µg/mL; with Bemisia tabaci [5], 297 µg/mL; in the assay on Bemisia tabaci [3], 43.9 µg/mL.
For the compound `CC[C@H](C)[C@H]1O[C@]2(C=C[C@@H]1C)C[C@@H]1C[C@@H](C/C=C(\C)[C@@H](O[C@H]3C[C@H](OC)[C@@H](O[C@H]4C[C@H](OC)[C@@H](O)[C@H](C)O4)[C@H](C)O3)[C@@H](C)/C=C/C=C3\CO[C@@H]4[C@H](O)C(C)=C[C@@H](C(=O)O1)[C@]34O)O2.CO[C@H]1C[C@H](O[C@H]2[C@H](C)O[C@@H](O[C@@H]3/C(C)=C/C[C@@H]4C[C@@H](C[C@]5(C=C[C@H](C)[C@@H](C(C)C)O5)O4)OC(=O)[C@@H]4C=C(C)[C@@H](O)[C@H]5OC/C(=C\C=C\[C@@H]3C)[C@]54O)C[C@@H]2OC)O[C@@H](C)[C@@H]1O` [ABAMECTIN], the RatioLC50 in the assay with Bemisia tabaci [1] amounted to 1. For the same compound, the median lethal concentration (LC50) in the assay with Bemisia tabaci [2] came to 0.92 µg/mL; in the assay on Bemisia tabaci [3], 0.8 µg/mL.
In the case of `C/C(=N\C#N)N(C)Cc1ccc(Cl)nc1` [ACETAMIPRID], the RatioLC50 in the assay with Bemisia tabaci [1] is recorded as 143; in the assay with Bemisia tabaci [4], 49. Also, the LC50 in the assay on Bemisia tabaci [2] is 186 µg/mL (≈ 835 µM); with Bemisia tabaci [5], 63 µg/mL (≈ 283 µM); in the assay with Bemisia tabaci [3] it was 1.3 µg/mL (≈ 5.84 µM).
In the case of `O=[N+]([O-])/N=C1\NCCN1Cc1ccc(Cl)nc1` [IMIDACLOPRID], the median lethal concentration (LC50) in the assay on Bemisia tabaci [6] came out at 30.9 µg/mL (≈ 121 µM); in the assay with Bemisia tabaci [7], 411 µg/mL (≈ 1610 µM); in the assay with Bemisia tabaci [2] it was 485 µg/mL (≈ 1900 µM); in the assay on Bemisia tabaci [5], 254 µg/mL (≈ 993 µM); in the assay on Bemisia tabaci [8] it was 102 µg/mL; in the assay on Bemisia tabaci [9], 0.4 µg/mL. In addition, the median lethal concentration (LC50) in the assay with Bemisia tabaci [10] was 1.22 µg/mL; in the assay with Bemisia tabaci [11], 0.91 µg/mL; with Bemisia tabaci [15] it was 28.6 µg/mL (≈ 112 µM); with Bemisia tabaci [3], 0.99 µg/mL (≈ 3.87 µM); in the assay on Bemisia tabaci [16] it was 273 µg/mL; in the assay with Bemisia tabaci [21], 371 µg/mL. For the same compound, the median lethal concentration (LC50) was found to be 357 µg/mL in the assay with Bemisia tabaci [22], 231 µg/mL with Bemisia tabaci [23] and 94 µg/mL with Bemisia tabaci [24]. Besides, the RatioLC50 in the assay with Bemisia tabaci [1] was determined as 490; with Bemisia tabaci [4], 257; in the assay with Bemisia tabaci [12], 29; in the assay on Bemisia tabaci [13] it was 415; with Bemisia tabaci [14], 31; in the assay on Bemisia tabaci [17], 2.5. The RatioLC50 in the assay on Bemisia tabaci [18] was found to be 2.5; in the assay on Bemisia tabaci [19] it was 0.8; in the assay with Bemisia tabaci [20] it was 1.1; with Bemisia tabaci [25], 1.3; in the assay with Bemisia tabaci [26], 1.4; in the assay with Bemisia tabaci [27] it was 2.1. Further, the RatioLC50 in the assay with Bemisia tabaci [28] came out at 2.7; in the assay on Bemisia tabaci [29] it was 0.9.
On to `N#C/N=C1\SCCN1Cc1ccc(Cl)nc1` [THIACLOPRID], for which the RatioLC50 in the assay on Bemisia tabaci [1] amounted to 37. In addition, the LC50 in the assay with Bemisia tabaci [2] was 37.3 µg/mL (≈ 148 µM); in the assay with Bemisia tabaci [3], 1.02 µg/mL (≈ 4.04 µM).
For `CN1COCN(Cc2cnc(Cl)s2)/C1=N\[N+](=O)[O-]` [THIAMETHOXAM], the RatioLC50 in the assay on Bemisia tabaci [1] is 243; in the assay on Bemisia tabaci [4], 92. Also, the LC50 with Bemisia tabaci [2] came to 289 µg/mL (≈ 991 µM); in the assay on Bemisia tabaci [5] it was 110 µg/mL (≈ 377 µM); with Bemisia tabaci [3], 1.19 µg/mL (≈ 4.08 µM).
`CCN(Cc1ccc(Cl)nc1)/C(=C/[N+](=O)[O-])NC` [NITENPYRAM]: the RatioLC50 with Bemisia tabaci [1] was 94. Moreover, the LC50 in the assay on Bemisia tabaci [2] turned out to be 93 µg/mL (≈ 344 µM); in the assay on Bemisia tabaci [3], 0.99 µg/mL (≈ 3.66 µM).
With `CC1(C)C(C=C(Cl)Cl)C1C(=O)OC(C#N)c1cccc(Oc2ccccc2)c1` (stereo not drawn) [ALPHA-CYPERMETHRIN], the RatioLC50 with Bemisia tabaci [1] and in the assay with Bemisia tabaci [4] was 1 in each case. The values for the median lethal concentration (LC50) in the assay on Bemisia tabaci [2], with Bemisia tabaci [5] and in the assay with Bemisia tabaci [3] were 263 µg/mL (≈ 632 µM), 230 µg/mL (≈ 552 µM) and 226 µg/mL (≈ 543 µM), respectively.

The record behind these values is ChEMBL document CHEMBL3044982, “Cross-resistance, inheritance and biochemical mechanisms of imidacloprid resistance in B-biotype Bemisia tabaci” (2009).
